The values below come from patent US5534498A, “Trypsin inhibitors” (Corvas International, Inc., priority 1993, dated 1996).

Type in all cases: biochemical
The target of test [1] is bovine and human pancreatic trypsin. As to the kind of experiment: Potency: determination of inhibitor constant Ki against trypsin (S-2222 substrate, Dixon plot). The settings on record: 37° C., TBS pH 7.4, 15 min preincubation, read-out: Ki For Peptide Aldehydes Against Trypsin. The method, then:
The potency and specificity of the compounds of the present invention are determined by in vitro assay methods well known in the art. […] Specifically, the inhibitor constant, Ki, of the compounds can be determined by the method of Dixon, Biochem. J. 55:170 (1953). The specificity is assessed by determination of the concentration, IC50, of compound required to give 50% inhibition of the enzymatic activity of the coagulation enzymes, kallikrein, factor XIa, factor VIIa, factor Xa, thrombin; the fibrinolysis enzymes, plasmin, tissue plasminogen activator (tPA), and urokinase (UK), and the anticoagulation enzyme, protein C. Specificity is found when the concentration of compound giving 50% inhibition of trypsin is low relative to the concentration required to give like inhibition of the other enzymes.
Enzyme activity was determined using as substrate S-2222 [N-benzoyl-L-isoleucyl-L-glutamyl-glycyl-L-arginine-p-nitroanilide hydrochloride where glutamyl side chain is 50% carboxylic acid and 50% methyl ester], purchased from Kabi Diagnostica. The substrate was made up in deionized water prior to use.
A 96-well microtiter plate was prepared for use in the assay by incubating each well with 300 μL of 1% bovine serum albumin (in deionized water) for 30 minutes at 37° C., and washing three times with deionized water.
To each well was added 50 μL TBS (0.1M Tris, 0.14M NaCl, pH 7.4), 50 μL 2.5 nM trypsin and 50 μL peptide aldehyde in TBS or TBS alone. After incubating for 15 minutes at 37° C., 50 μL of S-2222 (at 37° C.) at a specified concentration was added to each well. After mixing, the rate of substramte turnover at 37° C. was measured for 30 minutes at 405 nm (generation of p-nitroaniline). The initial S-2222 concentrations in the assay mixture were 0.45, 0.23, 0.11, 0.056, and 0.028 mM.
Ki was determined graphically using a Dixon plot, as described in Dixon, Biochem. J. 55:170 (1953).

The next test has as its target T1, human Factor XIa (Homo sapiens, UniProt P03951).
T1 construct: 50 μL of 5 nM human Factor XIa
As to the kind of experiment: Factor XIa assay (S-2366 substrate). The method, then:
The specificity of the peptide aldehydes (8 through 12) was determined in vitro by measurement of their IC50 against other enzymes involved in hemostasis. A specific concentration of enzyme and its substrate were challenged with varying concentrations of inhibitor. […] Specific assay procedures used are presented below.
(§1) 96-well microtiter plates were prepared for use in these assays by incubating each well with 300 μL 1% bovine serum albumin (in deionized water) for 30 minutes at 37° C., then washing three times with deionized water.
The substrate was made up in deionized water prior to use.

The target in another test is T2, human urokinase (Homo sapiens, UniProt P00749).
T2 construct: 50 μL of 270 U/mL human urokinase
As to the kind of experiment: Urokinase assay (S-2444 substrate). On the procedure:
The specificity of the peptide aldehydes (8 through 12) was determined in vitro by measurement of their IC50 against other enzymes involved in hemostasis. A specific concentration of enzyme and its substrate were challenged with varying concentrations of inhibitor. IC50 is that concentration of inhibitor giving 50% inhibition of substrate turnover, under the assay conditions. Specific assay procedures used are presented below.
as §1
Enzyme activity was determined using as substrate S-2444 [L-pyroglutamyl-L-glycyl-L-arginine-p-nitroanilide hydrochloride], purchased from Kabi Diagnostica. The substrate was made up in deionized water prior to use.
The assay was run by combining in appropriate wells 50 μL inhibitor in TBS or TBS alone and 50 μL of 270 U/mL human urokinase (or TBS as background control) and 50 μL TBS, incubating this mixture for 30 minutes at room temperature, adding 50 μL 1 mM S-2444, incubating for an additional 30 minutes at room temperature, then reading the absorbance of the wells at 405 nm on a microtiter plate reader set with background substraction at 650 nm.

[2] abbreviates: 30 min preincubation, room temperature, tested 0.025-25 μM, Inact. = no inhibition at highest concentration.
Where [3] appears, read: [IC50 for Trypsin/IC50 for other enzyme]×100, lower = more trypsin selective.

Structures are written as SMILES. Residues, ends and D or L forms follow the SMILES beside them. *: point of attachment. Boc = CC(C)(C)OC(=O)*

T1 sequence (P03951 388-625 limits assumed): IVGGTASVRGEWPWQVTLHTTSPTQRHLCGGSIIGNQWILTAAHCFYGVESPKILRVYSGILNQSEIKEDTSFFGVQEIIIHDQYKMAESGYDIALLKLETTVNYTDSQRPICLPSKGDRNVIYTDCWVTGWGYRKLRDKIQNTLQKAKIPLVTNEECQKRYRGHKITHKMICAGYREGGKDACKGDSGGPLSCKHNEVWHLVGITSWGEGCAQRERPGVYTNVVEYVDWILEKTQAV
T1 sequence (P03951 19-387 partner limits assumed): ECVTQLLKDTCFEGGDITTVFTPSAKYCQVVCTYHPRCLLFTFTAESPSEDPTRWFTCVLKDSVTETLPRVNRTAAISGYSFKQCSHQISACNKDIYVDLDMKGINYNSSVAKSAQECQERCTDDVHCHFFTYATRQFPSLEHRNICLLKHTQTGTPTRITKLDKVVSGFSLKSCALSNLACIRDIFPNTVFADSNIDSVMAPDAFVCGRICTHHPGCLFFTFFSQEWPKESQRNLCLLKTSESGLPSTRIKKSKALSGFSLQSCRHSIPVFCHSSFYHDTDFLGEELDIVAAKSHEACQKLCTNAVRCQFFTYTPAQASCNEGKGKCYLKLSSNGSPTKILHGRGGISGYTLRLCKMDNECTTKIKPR

For `CC(C)(C)OC(=O)N[C@@H](CC(=O)O)C(=O)N1CCC[C@H]1C(=O)N[C@H](C=O)CCCNC(=N)N` [Compound 9, N-t-butyloxycarbonyl-L-Asp-L-Pro-L-argininal] (Boc-Asp-Pro-Arg-aldehyde), in test [1], the Ki is 0.00045 µM. Further, the IC50 was 12 µM against human Factor XIa (setting [2]) and 25 µM at human urokinase (setting [2]). Besides, the “Calculated % Selectivity XIa” value at human Factor XIa (setting [3]) is on record as 0.12%. Also, the “Calculated % Selectivity UK” value at human urokinase (setting [3]) is on record as 0.06%.
